The values that follow come from patent US8349368B2, “Compositions and methods for treating vaginal infections and pathogenic vaginal biofilms” (priority 2007, dated 2013).

Values after ≈ are worked out from the molar mass of the structure shown. “Also recorded” adds a separate entry of the source.

One data set deals with G. vaginalis. Put plainly: planktonic MIC, standard MIC methodologies. It counts as cell-based, G. vaginalis ATCC #14018. As to conditions: Gardnerella vaginalis. The method, then: (§1) As a prelude to the biofilm experiments, the planktonic (i.e., free-floating vs. biofilm-associated) MIC values for boric acid and EDTA against both test organisms were established utilizing standard MIC methodologies. In contrast to C. albicans, the planktonic MIC values for boric acid and EDTA against G. vaginalis had not previously been reported.
(§2) In preparation of the biofilm experiments relating to the invention, overnight cultures of C. albicans and G. vaginalis were prepared by adding 1 mL frozen stock to 9 mL growth media (either G. vaginalis ATCC #14018 in 50% BHI broth+1% starch, or C. albicans ATCC #96113 in 50% SD broth+1% sucrose) and incubated for 24 hours at 37° C., C. albicans was grown under atmospheric conditions while G. vaginalis was grown with the addition of 5% CO2.
(§3) Next, the 24 biofilm-covered coupons were aseptically removed from the CDC reactor and placed in a 24-well plate, with each well containing 2 mL of test solution. The test solutions were run in triplicate and included varied concentrations of boric acid (BA) and EDTA or a combination thereof. […] Fluconazole at a concentration of 8 μg/mL was selected as the treatment control for C. albicans.

A further data set deals with C. albicans. Put plainly: planktonic MIC, standard MIC methodologies. As to conditions: Candida albicans, read-out: planktonic MIC.
A further data set has as its system recurrent BV. The method, then:
A retrospective case review was conducted of the use of boric acid in a series of patients with recurrent BV. Boric acid was employed as an antimicrobial agent as part of a 6-month sequential treatment protocol.
With the exception of boric acid, all of the other antimicrobials used were FDA approved for BV. The 6-month protocol was as follows: • 1. Induction: oral metronidazole or tinidazole twice daily for 7-10 days • 2. Boric acid treatment: 600-mg gelatin capsule inserted vaginally daily for 21 days • 3.

Data set [1] concerns clinical isolates of C. albicans as well as non-albicans species. As to conditions: literature (Shubair 1990; Prutting 1998); cited from earlier work.
The subject of data set [2] is common bacterial pathogens. The settings on record: literature (Meers 1990); cited from earlier work.
For data set [3] the following is noted: including vaginal secretions and tissues; oral dosing, maximum daily dose 400 mg; cited from earlier work.
The test system of a further data set is G. vaginalis biofilm. Put plainly: biofilm disruption in CDC biofilm reactor. It counts as cell-based, G. vaginalis ATCC #14018. The settings on record: metronidazole 192 μg/mL, 24-hour treatment. The procedure:
as §1, §2, §3

For the next data set, the system named is BV biofilm. The settings on record: oral 500 mg twice daily for 7 days, cited from earlier work.
In another data set the test system is G. vaginalis isolates. As to conditions: conventional planktonic MIC testing; cited from earlier work.

Take `O=C(O)CN(CCN(CC(=O)O)CC(=O)O)CC(=O)O` [EDTA, ethylene-diamine-tetra-acetic acid]: the MIC in the data set with G. vaginalis stood at 190 µg/mL; with C. albicans it was 780 µg/mL (≈ 2.67 mM).
Consider `OB(O)O` [boric acid], for which the MIC worked out at 3120 µg/mL in the data set on G. vaginalis and 1560 µg/mL (≈ 25.2 mM) in the data set with C. albicans. Also, the “treatment failures during boric acid therapy” value in the data set on recurrent BV (600-mg vaginal capsule daily for 21 days) is given as “none of the treatment failures occurred during boric acid therapy”. Also, the patients remaining cured entry in the data set with recurrent BV (at 9 months (3 months after maintenance)) is listed as “Sixty-seven”. Also, in the data set on recurrent BV (end of 6 months, nitroimidazole induction, boric acid 600 mg vaginally daily 21 days, metronidazole gel maintenance, 24/31), the “patients clinically cured (asymptomatic and negative for Amsel's criteria)” value is given as 77%. Also, in the data set on recurrent BV (in vivo), the “secondary yeast infection or discontinuation because of adverse event or intolerance” value is on record as “none of the patients experienced a secondary yeast infection or discontinued”. Also, the “median duration of remission” value in the data set on recurrent BV (retrospective case series) is 8.7 months. In addition, the “antifungal activity in vitro” value in data set [1] is on record as “weakly fungistatic”. Also, the “antibacterial activity in vitro” value in data set [2] is reported as “bacteriostatic activity”.
For the molecule `OC(Cn1cncn1)(Cn1cncn1)c1ccc(F)cc1F` [fluconazole, Fluconazole], in [3], the “drug levels achieved in biologic fluids and tissues” value is 4.12-8.08 μg/mL.
For the molecule `Cc1ncc([N+](=O)[O-])n1CCO` [metronidazole], the MIC in the data set with G. vaginalis worked out at 128 µg/mL. For the same molecule, the “effect of active control on G. vaginalis biofilm” value with G. vaginalis biofilm is “little impact; also recorded: minimal impact”. In the data set on BV biofilm (G. vaginalis and Atopobium), the “vaginal biopsy result (fluorescent in situ hybridization)” value is “persistent accumulation of core pathogenic bacteria”. Also, the “clinical response by standard clinical and microbiologic methods” value with BV biofilm (each time point) is recorded as “resolution of BV”. Besides, the “susceptibility of G. vaginalis isolates” value with G. vaginalis isolates is “good susceptibility”.
